Data from ChEMBL document CHEMBL1142097, “EthA, a common activator of thiocarbamide-containing drugs acting on different mycobacterial targets” (Antimicrob Agents Chemother, 2007).
Activity calls are given as the source filed them. The rule behind the calls is not given here.

Test system: Mycobacterium tuberculosis
Experiment: Antimycobacterial activity against Mycobacterium tuberculosis H37Rv
Assay type: functional, organism-based

COc1ccc(/C(C)=N/NC(N)=S)cc1
Activity: Active
